Measurements from patent US10487088B2, “Tricyclic compound serving as immunomodulator” (Chia Tai Tianqing Pharmaceutical Group Co., Ltd., priority 2016, dated 2019).

Assays:
[1] = biological target: T1, IDO1 enzyme in Hela cells (Homo sapiens, UniProt P14902); experiment: hIDO1 cytological activity assay (kynurenine in Hela cells by LC-MS); assay type: cell-based; settings: Hela cells induced with 100 ng/mL recombinant human γ-interferon, 20 h, read-out: IC50 hIDO1 Cytoactive
T1 construct: recombinant human γ-interferon was added at a final concentration of 100 ng/mL to induce IDO1 expression; endogenous in cells; host or cells: Hela cells, induced with recombinant human γ-interferon
Experimental: The change of kynurenine in Hela cells was detected by the LC-MS method, and the IC50 value of the compound was used as an index, to evaluate the inhibitory effect of the compound on IDO1 enzyme.
A medium, trypsin and DPBS were pre-heated in a 37° C. water bath. The medium for cell culture was sucked out and washed with 10 mL of DPBS; then the pre-heated trypsin was added into the culture flask, and the flask was rotated to allow the trypsin to uniformly cover it, and then placed in a 37° C., 5% CO2 incubator and digested for 1-2 min; in each T150, cells were dispersed with 10-15 mL of medium, centrifuged at 800 rpm for 5 min, and then resuspended in 10 mL of medium; 1 mL of cell suspension was pipetted and the cells were counted with Vi-cell; Hela cells were diluted with medium to 5×10^5/mL, 80 μL of the solution was added to a 96-cell plate, and cultured at 37° C. for 5-6 h in a 5% CO2 incubator.
The compound was diluted to 1 mM in DMSO, and then diluted 3-fold in duplicate wells, with 9 gradients. 5 μL of the diluted solution of the compound in DMSO was added to the compound plate containing 95 μL of the medium, and mixed, followed by transferring 10 μL of the mixture to a cell plate.
10 μL of recombinant human γ-interferon was added at a final concentration of 100 ng/mL to induce IDO1 expression. The cells were incubated at 37° C. for 20 h in a 5% CO2 incubator. 4 μL of 5% (w/v) trichloroacetic acid was added thereto, mixed and incubated at 50° C. for 30 min. After centrifugation at 2400 rpm for 10 min, 40 μL of the supernatant was taken and placed in a 96-well V-bottom plate, and then a precipitant was added in the plate. After mixing, the mixture was centrifuged at 4000 rpm for 10 min. 100 μL of the supernatant was transferred to a new 96-well V-bottom plate. The content of kynurenine was determined by LC-MS.
The control wells having γ-interferon but no compound was set as 0% inhibition, and the control wells without Hela cell was set as 100% inhibition, and the IC50 value of the compound was calculated by analyzing the data with XLFit 5.

[2] = biological target: T2, recombinant human IDO1 enzyme (Homo sapiens, UniProt P14902); experiment: In vitro hIDO1 enzyme activity test (NFK Green fluorescence); assay type: biochemical; settings: recombinant human IDO1, L-tryptophan substrate, pH 6.5
T2 construct: purchased NTRC NTRC-hlDO-10K
Experimental: The change of NFK production was detected by using the NFK Green™ fluorescent molecule, which is the metabolite of the IDO1 enzyme, and the IC50 value of the compound was used as an index, to evaluate the inhibitory effect of the compound on the recombinant human IDO1 enzyme.
IDO1 Enzyme Activity Assay Kit, NTRC # NTRC-hlDO-10K;
The compound was diluted to 1 mM in DMSO, and then diluted 3-fold in duplicate wells, with 10 gradients. 48 μL of 50 mM phosphate buffer (pH 6.5) was transferred to the compound plate via Bravo automated liquid handling platform. 2 μL of the diluted solution of the compound in DMSO was then added and mixed, followed by transferring 10 μL therein to an enzyme reaction plate.
The IDO1 enzyme was diluted to 20 nM in the reaction buffer (50 mM phosphate buffer pH 6.5, 0.1% Tween-20, 2% glycerol, 20 mM ascorbic acid, 20 μg/mL catalase and 20 μM methylene blue), and 20 μL of the solution was transferred to an enzyme reaction plate and incubated at 23° C. for 30 min. The reaction was started by adding 10 μL of 400 μM L-type tryptophan substrate and incubated at 23° C. for 90 min. 10 μL of NFK Green™ fluorescent dye was added, and the plate was sealed with the sealing film, incubated at 37° C. for 4 h, and then read on Envision Multimode Plate Reader (Ex 400 nm/Em 510 nm).
The control wells with the IDO1 enzyme but no compound was set as 0% inhibition, and the control wells without the IDO1 enzyme was set as 100% inhibition, and the IC50 value of the compound was calculated by analyzing the data with XLFit 5.

T1 sequence (P14902 whole entry): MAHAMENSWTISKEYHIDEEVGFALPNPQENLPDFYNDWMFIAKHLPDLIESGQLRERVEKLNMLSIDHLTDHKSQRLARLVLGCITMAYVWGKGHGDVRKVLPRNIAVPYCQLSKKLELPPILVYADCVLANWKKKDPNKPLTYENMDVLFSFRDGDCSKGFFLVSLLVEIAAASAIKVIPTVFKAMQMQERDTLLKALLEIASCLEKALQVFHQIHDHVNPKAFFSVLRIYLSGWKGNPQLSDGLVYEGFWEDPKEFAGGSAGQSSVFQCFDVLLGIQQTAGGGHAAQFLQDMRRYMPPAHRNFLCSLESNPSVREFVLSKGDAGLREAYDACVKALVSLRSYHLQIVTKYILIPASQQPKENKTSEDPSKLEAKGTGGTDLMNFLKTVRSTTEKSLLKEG
T2 sequence (P14902 whole entry): as above

IC50 [1] [nM]	IC50 [2] [nM]	Compound
17.5	55	c1cc2c(s1)C(CCC1CCCCC1)n1cncc1-2 (single isomer, unassigned) [Example 9, 8-(2-cyclohexyl)-8H-thieno[3,4]pyrrolo[1,5-a]imidazole]
> 5000	> 10000	c1cc2c(s1)C(CCC1CCCCC1)n1cncc1-2 (single isomer, unassigned) [Example 10, 8-(2-cyclohexyl)-8H-thieno[3,4]pyrrolo[1,5-a]imidazole]
220	65.9	c1cc2c(s1)C(C1CCCCC1)n1cncc1-2 (single isomer, unassigned) [Example 14, 8-cyclohexyl-8H-thieno[3,4]pyrrolo[1,5-a]imidazole]
911	71	c1cc2c(s1)C(CC1CCCCC1)n1cncc1-2 (single isomer, unassigned) [Example 16, 8-(cyclohexylmethyl)-8H-thieno[3,4]pyrrolo[1,5-a]imidazole]
> 5000	> 10000	O[C@@H](C[C@@H]1c2sccc2-c2cncn21)C1CCOCC1 (single isomer, unassigned) [Example 28]
117	51.6	O[C@@H](C[C@H]1c2sccc2-c2cncn21)C1CCOCC1 (single isomer, unassigned) [Example 29]
74.9	48	FC1(F)CCC([C@H]2c3sccc3-c3cncn32)CC1 (single isomer, unassigned) [Example 41]
	> 10000	O=C(O)C1CCCC(C2c3sccc3-c3cncn32)C1 (single isomer, unassigned) [Example 101, 3-(8H-thieno[3,4]pyrrolo[1,5-a]imidazol-8-yl) cyclohexylcarboxylic acid]
	> 10000	O=C(O)C1CCCC(C2c3sccc3-c3cncn32)C1 (single isomer, unassigned) [Example 102, 3-(8H-thieno[3,4]pyrrolo[1,5-a]imidazol-8-yl) cyclohexylcarboxylic acid]
	> 10000	O=C(O)C1CCCC(C2c3sccc3-c3cncn32)C1 (single isomer, unassigned) [Example 103, 3-(8H-thieno[3,4]pyrrolo[1,5-a]imidazol-8-yl) cyclohexylcarboxylic acid]
	> 10000	O=C(O)C1CCCC(C2c3sccc3-c3cncn32)C1 (single isomer, unassigned) [Example 104, 3-(8H-thieno[3,4]pyrrolo[1,5-a]imidazol-8-yl) cyclohexylcarboxylic acid]
	183	O[C@@H]1CCCC1[C@H]1c2sccc2-c2cncn21 (single isomer, unassigned) [Example 107, (trans)-2-(8H-thieno[3′,2′:3,4]pyrrolo[1,2-c]imidazol-8-yl)cyclopentanol]
	> 10000	O[C@@H]1CCCC1[C@H]1c2sccc2-c2cncn21 (single isomer, unassigned) [Example 108, (trans)-2-(8H-thieno[3′,2′:3,4]pyrrolo[1,2-c]imidazol-8-yl)cyclopentanol]
	> 10000	O[C@@H]1CCCC1[C@H]1c2sccc2-c2cncn21 (single isomer, unassigned) [Example 109, (trans)-2-(8H-thieno[3′,2′:3,4]pyrrolo[1,2-c]imidazol-8-yl)cyclopentanol]
	> 10000	O[C@@H]1CCCC1[C@H]1c2sccc2-c2cncn21 (single isomer, unassigned) [Example 110, (trans)-2-(8H-thieno[3′,2′:3,4]pyrrolo[1,2-c]imidazol-8-yl)cyclopentanol]
	3510	OC1CCC(C2c3sccc3-c3cncn32)CC1 (single isomer, unassigned) [Example 115, 4-(8H-thieno[3,4]pyrrolo[1,5-a]imidazol-8-yl)-cyclohexanol]
	> 10000	OC1CCC(C2c3sccc3-c3cncn32)CC1 (single isomer, unassigned) [Example 116, 4-(8H-thieno[3,4]pyrrolo[1,5-a]imidazol-8-yl)-cyclohexanol]
	7290	OC1CCC(C2c3sccc3-c3cncn32)CC1 (single isomer, unassigned) [Example 118, 4-(8H-thieno[3,4]pyrrolo[1,5-a]imidazol-8-yl)-cyclohexanol]
	807	c1cc2c(s1)C(C1CCC1)n1cncc1-2 (stereo not drawn) [Example 32, 8-cyclobutyl-8-hydro-thieno[3,4]pyrrolo[1,5-a]imidazole]

Second part, the molecule before the results:

Compound	IC50 [1] [nM]	IC50 [2] [nM]
FC1(F)CCC(CCC2c3sccc3-c3cncn32)CC1 (single isomer, unassigned) [Example 22, 8-(2-(4,4-difluorocyclohexyl)ethyl)-8H-thieno[3′,2′:3,4]pyrrolo[1,2-c]imidazole]	212	23.1
OCC1(C2c3sccc3-c3cncn32)CCCCC1 (single isomer, unassigned) [Example 42, [1-(8H-thieno[3,4]pyrrolo[1,5-a]imidazol-8-yl)cyclohexyl]methanol]	779	253
CC(C)(C(O)C1CCCCC1)C1c2sccc2-c2cncn21 (single isomer, unassigned) [Example 120, 1-cyclohexyl-2-methyl-2-(8H-thieno[3,4]pyrrolo[1,5-a]imidazol-8-yl)-propan-1-ol]		> 10000
CC(C)(C(O)C1CCCCC1)C1c2sccc2-c2cncn21 (single isomer, unassigned) [Example 121, 1-cyclohexyl-2-methyl-2-(8H-thieno[3,4]pyrrolo[1,5-a]imidazol-8-yl)-propan-1-ol]		585
CC(C)(C(O)C1CCCCC1)C1c2sccc2-c2cncn21 (single isomer, unassigned) [Example 122, 1-cyclohexyl-2-methyl-2-(8H-thieno[3,4]pyrrolo[1,5-a]imidazol-8-yl)-propan-1-ol]		> 10000
OCCC1c2sccc2-c2cncn21 (stereo not drawn) [Example 11, 2-(8H-thieno[3′,2′:3,4]pyrrolo[1,2-c]imidazol-8-yl)ethanol]		5980
OC(CC1c2cscc2-c2cncn21)C1CCCCC1 (stereo not drawn) [Example 12, 1-cyclohexyl-2-(5H-thieno[3′,4′:3,4]pyrrolo[1,2-c]imidazol-5-yl)ethanol]		106
CC(C)(C)C1c2sccc2-c2cncn21 (stereo not drawn) [Example 23, 8-(tert-butyl)-8H-thieno[3′,2′:3,4]pyrrolo[1,2-c]imidazole]		5260
CC(C)CC1c2sccc2-c2cncn21 (stereo not drawn) [Example 24, 8-isobutyl-8H-thieno[3′,2′:3,4]pyrrolo[1,2-c]imidazole]		1030
CC(C)C1c2sccc2-c2cncn21 (stereo not drawn) [Example 25, 8-isopropyl-8H-thieno[3,4]pyrrolo[1,5-a]imidazole]		8120
c1cc2c(s1)C(CCN1CCOCC1)n1cncc1-2 (stereo not drawn) [Example 30]		> 10000
c1cc2c(s1)C(CCN1CCCCC1)n1cncc1-2 (stereo not drawn) [Example 31, 8-(2-(piperidin-1-yl)ethyl)-8H-thieno[3′,2′:3,4]pyrrolo[1,2-c]imidazole]		> 10000
O[C@@H](C[C@@H]1c2sccc2-c2cncn21)C1CCC(F)(F)CC1 [Example 47, (1S)-1-(4,4-difluorocyclohexyl)-2-((R)-8H-thieno[3,4]pyrrolo[1,5-a]imidazol-8-yl)ethanol]		1680
c1ccc2c(C3CCC(C4c5sccc5-c5nccn54)CC3)ccnc2c1 (stereo not drawn) [Example 96, 5-(4-(quinolin-4-yl)cyclohexyl)-5H-thieno[3′,2′:3,4]pyrrolo[1,2-a]imidazole]		> 10000
